According to patent EP0341019A2, “Polyether antibiotic” (priority 1988, dated 1989):
≈ marks a conversion by molar mass, not a printed value.

Assays:
[1] = tested on: Eubacterium aerofaciens 1235; type: cell-based; settings: Collinsella aerofaciens, 1235, 24 h
Escherichia coli N10 = type: cell-based; settings: N10, 24 h
[2] = tested on: Bacteroides thetaiotaomicron 1438; type: cell-based; settings: 24 h
[3] = tested on: Bacteroides corrodens 1874; type: cell-based; settings: Eikenella corrodens, 1874, 24 h
[4] = tested on: Fusobacterium necrophorum 6054A; type: cell-based; settings: 24 h
[5] = tested on: Peptostreptococcus intermedius 1624; type: cell-based; settings: Peptostreptococcus, 1624, 24 h
Serratia marcescens X99 = type: cell-based; settings: X99, 24 h
[6] = tested on: Great Lakes influenza virus; type: cell-based; settings: tissue culture
Klebsiella sp. = type: cell-based; settings: 24 h
[7] = tested on: Streptococcus faecalis 2041; type: cell-based; settings: Enterococcus faecalis, 2041, 24 h
[8] = tested on: Bacteroides melaninogenicus 1856/28; type: cell-based; settings: Prevotella intermedia, 1856/28, 24 h
E. maxima Strain LIT-626 = assay: anticoccidial feed test in infected chickens, ionophore-resistant strain; type: in vivo
[9] = tested on: Eimeria acervulina H & C and Eimeria tenella Wis; assay: anticoccidial feed test in infected chickens, ionophore-sensitive strains; type: in vivo
[10] = tested on: Eimeria acervulina Strain FS-273 and E. tenella Strain FS-456; assay: anticoccidial feed test in infected chickens, ionophore-resistant strains; type: in vivo
[11] = tested on: Haemophilus influenzae C.L.; type: cell-based; settings: 24 h
[12] = tested on: Streptococcus pyogenes C203; type: cell-based; settings: C203, 24 h
Escherichia coli EC14 = type: cell-based; settings: EC14, 24 h
Treponema hyodysenteriae = assay: growth inhibition of swine dysentery agent; type: cell-based
Description: In another aspect the A82810 compounds are useful in the treatments of swine dysentery. A82810 inhibits the growth of Treponema hyodysenteriae, a causative agent of swine dysentery, at levels as low as 1.56 mcg/mL. A preferred method of administration to swine is by incorporation of an appropriate amount of an A82810 compound into the feed ration or drinking water. An appropriate amount will relate to whether the treatment is to prevent or to cure infection. Usually, a lower concentration of active compound is needed to prevent infection than is required for to eliminate infection in animals already afflicted. In general, amounts in the range of from about 20 to about 100 grams of A82810 compound per ton of feed are effective to prevent infection. Amounts in the range of from about 100 to about 500 g of A82810 compound per ton of feed are recommended for treating swine suffering from dysentery. These amounts provide from about 1 to about 5 mg/kg of body weight per day (prophylactic treatment) or from about 5 to about 25 mg/kg of body weight per day (treatment of infected animal). When added to the drinking water, amounts of from about 0.04 to about 0.2 g (prophylactic) or from about 0.2 to about 1 g (therapeutic) of A82810 compound per gallon of water are recommended.

[13] = tested on: Herpes simplex viruses (HSV I); assay: antiviral tissue-culture test; type: cell-based, Herpes simplex virus
[14] = tested on: Bacteroides vulgatis 1211; type: cell-based; settings: Bacteroides, 1211, 24 h
[15] = tested on: Staphylococcus aureus X400; type: cell-based; settings: X400, 24 h
[16] = tested on: Staphylococcus epidermidis 222; type: cell-based; settings: Staphylococcus epidermidis, 222, 24 h
[17] = tested on: Eimeria acervulina Strain FS-316 And E. tenella Strain FS-456; assay: anticoccidial feed test in infected chickens, ionophore-resistant strains; type: in vivo
[18] = tested on: Peptococcus asaccharolyticus 1302; type: cell-based; settings: Peptoniphilus asaccharolyticus, 1302, 24 h
Eimeria tenella = assay: in vitro tissue-culture anticoccidial screen; type: cell-based; settings: in vitro tissue-culture screen against Eimeria tenella
Description: Anticoccidial activity is an important property of the A82810 compounds. For example, in an in vitro tissue-culture screen against Eimeria tenella, A82810 was active at <0.0025 mcg/mL, propionyl-A82810 was active at 0.05 mcg/mL and acetyl-A82810 was active at 0.01 mcg/mL.

Peptococcus prevoti 1281 = type: cell-based; settings: 24 h

In the case of `CC[C@@H](O)[C@]1(C)C[C@H](C)[C@@](O)([C@H]2C[C@H](C)[C@H]([C@]3(C)C[C@@H](O[C@H]4CC[C@H](OC)[C@@H](C)O4)[C@H]([C@]4(C)CC[C@@]5(O[C@H]([C@@H](C)[C@@H](OC)[C@H](C)C(=O)O)[C@H](C)[C@@H](OC)[C@H]5C)O4)O3)O2)O1` [Example A82810], the pKa (physchem) is reported as 6.6, the MIC [1] is reported as ≤ 0.25 µg/mL and the MIC (Escherichia coli N10) is reported as 1 µg/mL (≈ 1.19 µM). The MIC [2] was 8 µg/mL (≈ 9.49 µM), the MIC [3] was 8 µg/mL (≈ 9.49 µM) and the MIC [4] was ≤ 0.25 µg/mL. For the same compound, the MIC [5] was ≤ 0.25 µg/mL, the MIC (Serratia marcescens X99) was > 128 µg/mL and the “active at a level of” value [6] was 250 µg/mL. The MIC (Klebsiella sp.) was > 128 µg/mL, the MIC [7] was 1 µg/mL (≈ 1.19 µM) and the MIC [8] was 8 µg/mL (≈ 9.49 µM). For the same compound, the “AVERAGE INTESTINAL LESION SCORES” value (E. maxima Strain LIT-626; 1.25 ppm) was 3.7, the “WEIGHT GAIN, PERCENT OF CONTROL” value (E. maxima Strain LIT-626; 1.25 ppm) was 99% OF CONTROL and the “AVERAGE INTESTINAL LESION SCORES” value (E. maxima Strain LIT-626; 1.5 ppm) was 3.3. For the same compound, the “WEIGHT GAIN, PERCENT OF CONTROL” value (E. maxima Strain LIT-626; 1.5 ppm) was 102% OF CONTROL, the “AVERAGE INTESTINAL LESION SCORES” value (E. maxima Strain LIT-626; 1.75 ppm) was 4.0 and the “WEIGHT GAIN, PERCENT OF CONTROL” value (E. maxima Strain LIT-626; 1.75 ppm) was 101% OF CONTROL. The “AVERAGE INTESTINAL LESION SCORES” value (E. maxima Strain LIT-626; 2 ppm) was 3.3, the “WEIGHT GAIN, PERCENT OF CONTROL” value (E. maxima Strain LIT-626; 2 ppm) was 94% OF CONTROL and the “AVERAGE INTESTINAL LESION SCORES” value ([9]; 2 ppm) was 1.2. The “WEIGHT GAIN, PERCENT OF CONTROL” value ([9]; 2 ppm) was 98% OF CONTROL, the “AVERAGE INTESTINAL LESION SCORES” value ([9]; 6 ppm) was 0.4 and the “WEIGHT GAIN, PERCENT OF CONTROL” value ([9]; 6 ppm) was 91% OF CONTROL. For the same compound, the “AVERAGE INTESTINAL LESION SCORES” value ([9]; 10 ppm) was 0.3, the “WEIGHT GAIN, PERCENT OF CONTROL” value ([9]; 10 ppm) was 80% OF CONTROL and the “LESION SCORE” value ([10]; 2 ppm) was 7.2. For the same compound, the “PERCENT REDUCTION IN OOCYST PRODUCTION” value ([10]; 2 ppm) was 22%, the “WEIGHT GAIN, PERCENT OF CONTROL” value ([10]; 2 ppm) was 68% OF CONTROL and the “LESION SCORE” value ([10]; 6 ppm) was 3.7. For the same compound, the “PERCENT REDUCTION IN OOCYST PRODUCTION” value ([10]; 6 ppm) was 65%, the “WEIGHT GAIN, PERCENT OF CONTROL” value ([10]; 6 ppm) was 89% OF CONTROL and the “LESION SCORE” value ([10]; 10 ppm) was 2.0. The “PERCENT REDUCTION IN OOCYST PRODUCTION” value ([10]; 10 ppm) was 83%, the “WEIGHT GAIN, PERCENT OF CONTROL” value ([10]; 10 ppm) was 86% OF CONTROL and the MIC [11] was 128 µg/mL (≈ 152 µM). For the same compound, the MIC [12] was 1 µg/mL (≈ 1.19 µM), the MIC (Escherichia coli EC14) was 8 µg/mL (≈ 9.49 µM) and the “inhibits the growth at levels as low as” value (Treponema hyodysenteriae) was 1.56 µg/mL. The “active at levels as low as” value [13] was 1.56 µg/mL, the MIC [14] was 4 µg/mL (≈ 4.74 µM) and the MIC [15] was 1 µg/mL (≈ 1.19 µM). For the same compound, the MIC [16] was 0.5 µg/mL (≈ 0.593 µM), the “TOTAL LESION SCORE” value ([17]; 0.5 ppm) was 8.7 and the “WEIGHT GAIN, PERCENT OF CONTROL” value ([17]; 0.5 ppm) was 87% OF CONTROL. For the same compound, the “TOTAL LESION SCORE” value ([17]; 1 ppm) was 9.3, the “WEIGHT GAIN, PERCENT OF CONTROL” value ([17]; 1 ppm) was 89% OF CONTROL and the “TOTAL LESION SCORE” value ([17]; 1.5 ppm) was 7.7. For the same compound, the “WEIGHT GAIN, PERCENT OF CONTROL” value ([17]; 1.5 ppm) was 95% OF CONTROL, the “TOTAL LESION SCORE” value ([17]; 2 ppm) was 9.6 and the “WEIGHT GAIN, PERCENT OF CONTROL” value ([17]; 2 ppm) was 93% OF CONTROL. For the same compound, the “AVERAGE CECAL LESION SCORES” value ([17]; 2.5 ppm) was 3.2, the “AVERAGE INTESTINAL LESION SCORES” value ([17]; 2.5 ppm) was 2.3 and the “WEIGHT GAIN, PERCENT OF CONTROL” value ([17]; 2.5 ppm) was 81% OF CONTROL. The “AVERAGE CECAL LESION SCORES” value ([17]; 3 ppm) was 2.9, the “AVERAGE INTESTINAL LESION SCORES” value ([17]; 3 ppm) was 3.3 and the “WEIGHT GAIN, PERCENT OF CONTROL” value ([17]; 3 ppm) was 77% OF CONTROL. The “AVERAGE CECAL LESION SCORES” value ([17]; 3.5 ppm) was 3.2, the “AVERAGE INTESTINAL LESION SCORES” value ([17]; 3.5 ppm) was 3.0 and the “WEIGHT GAIN, PERCENT OF CONTROL” value ([17]; 3.5 ppm) was 85% OF CONTROL. The “AVERAGE CECAL LESION SCORES” value ([17]; 5 ppm) was 2.3, the “AVERAGE INTESTINAL LESION SCORES” value ([17]; 5 ppm) was 1.3 and the “WEIGHT GAIN, PERCENT OF CONTROL” value ([17]; 5 ppm) was 95% OF CONTROL. For the same compound, the “AVERAGE CECAL LESION SCORES” value ([17]; 6 ppm) was 3.2, the “AVERAGE INTESTINAL LESION SCORES” value ([17]; 6 ppm) was 1.7 and the “WEIGHT GAIN, PERCENT OF CONTROL” value ([17]; 6 ppm) was 98% OF CONTROL. For the same compound, the MIC [18] was ≤ 0.25 µg/mL, the active at (Eimeria tenella) was < 0.0025 µg/mL and the MIC (Peptococcus prevoti 1281) was ≤ 0.25 µg/mL.
